Columns and labels:
[1] = system: bile duct-ligated (BDL) rats; assay: Serum markers of liver function in bile duct-ligated (BDL) rats; format: in vivo, Sprague-Dawley rats; conditions: GW4064 100 mg/kg daily i.p. for 7 days
Method: (§1) Male Sprague-Dawley rats (approximately 300 grams) were obtained from Charles River Laboratories Inc (Raleigh, N.C.) and were maintained on a 12 hour light/12 hour dark light cycle. Animals were anesthetized by the administration of 2-3% isoflurane. Laparotomy was performed under sterile technique and the liver and duodenum gently displaced to reveal the common bile duct. The bile duct was separated from the surrounding tissue and two ligatures of 4-0 Ethilon were placed around it. The bile duct was clamped between the two ligatures with an aneurysm clamp and the ligatures drawn tight. An additional ligature was placed proximal to the first (near the liver). The clamp was removed and the bile duct severed between the ligatures. The muscle wall was closed with 4-0 Vicryl and the skin closed with staples. Animals were allowed to recover for 24 hours prior to administration of drug (GW4064, 100 mg/kg daily in corn oil/10% DMSO) or vehicle alone (in corn oil/10% DMSO) by a daily intra-peritoneal injection for 7 days prior to sacrifice. Animals were allowed food and water ad libitum throughout the study period. Animals were anesthetized with 2-3% isoflurane and sacrificed by cardiac puncture.
Serum levels of alanine aminotransferase (ALT), asparate aminotransferase (AST), total bilirubin (TBILI), and γ-glutamyl transferase (GGT) were determined using an Instrumentation Laboratory Ilab600 clinical chemistry analyzer. Serum bile acids (BILEA) were determined using a commercially available assay (Sigma Chemical Co., St Louis, Mo.).

[2] = system: bile duct-ligated (BDL) rats; assay: Histological examination of liver samples from BDL rats; format: in vivo, Sprague-Dawley rats; conditions: GW4064 100 mg/kg daily i.p. for 7 days
Method: as §1
A section of the liver was removed and placed into 10% neutral buffered formalin. […]

CC(C)c1onc(-c2c(Cl)cccc2Cl)c1COc1ccc(/C=C/c2cccc(C(=O)O)c2)c(Cl)c1 [GW4064]
Liver function as defined by the panel of enzymes examined [1]: pronounced improvement in liver function | Serum level of ALT, as % of that in BDL rats receiving vehicle alone ([1]; corn oil/10% DMSO): 23% | Serum level of AST, as % of that in BDL rats receiving vehicle alone ([1]; corn oil/10% DMSO): 27% | Serum level of GGT, as % of that in BDL rats receiving vehicle alone ([1]; corn oil/10% DMSO): 34% | Serum level of TBILI, as % of that in BDL rats receiving vehicle alone ([1]; corn oil/10% DMSO): 49% | Liver histology: bile duct proliferation [2]: only bile duct proliferation | Liver histology: necrosis ([2]; vehicle-treated showed large areas of necrosis): no necrosis

— patent US6987121B2, “Compositions and methods for hepatoprotection and treatment of cholestasis” (SmithKline Beecham Corporation, priority 2002, dated 2006)
